Values of other authors in patent publication US20190316065A1, “NATURALLY-DERIVED ANTIMICROBIAL CLEANING SOLUTIONS” (ProNatural Brands LLC, priority 2018, published 2019).

Conditions: standard pKa

- pKa1: 3.1
- pKa2: 4.8
- pKa3: ≈ 6.4
SMILES: O=C(O)CC(O)(CC(=O)O)C(=O)O [citric acid]
